# Results: patent US12226458B2, “System for providing an up-to-date and long-acting or ultra-long-acting insulin dose guidance recommendation to treat diabetes mellitus” (Novo Nordisk A/S, priority 2018, dated 2025)
# Columns and labels:
# [1] = system: insulin-naïve subjects with type 2 diabetes; assay: BEGIN ONCE SIMPLE USE trial: adverse events; conditions: IDegStep-wise arm; 154 days after starting trial drug, liver metastasis, considered unlikely related to treatment
# Description: (§3) This was a multinational (conducted in the US, Spain, Finland, and Germany), Phase 3b, multi-center, two-armed, parallel group, open-label, randomized, treat-to-target study that compared the efficacy and safety of IDeg OD [IDeg 100 U/mL, FlexTouch® pen, Novo Nordisk A/S, Bagsværd, Denmark], adjusted using two different titration algorithms in combination with metformin. The trial consisted of a 26-week period; total study duration was approximately 28 weeks (including 1 week for screening and a 7-day follow-up period). After discontinuing all OADs other than metformin, subjects were randomized 1:1 by an interactive voice/web response system (IV/WRS) to IDegSimple or IDegStep-wise insulin self-titration algorithms, as defined below. Subjects were instructed to self-titrate in accordance with their respective algorithms and continue with their pre-trial metformin dose. At randomization, Week 4 and Week 12, subjects in both treatment arms received diet and exercise counselling by an HCP.
# (§4) Adverse events (AEs) and hypoglycemic episodes were documented throughout the study, with confirmed hypoglycemia defined as episodes of severe hypoglycemia (requiring assistance from another person) and episodes with PG value <3.1 mmol/L (56 mg/dL). Nocturnal confirmed hypoglycemic episodes were those occurring between 00:01 h and 05:59 h (inclusive). Laboratory safety variables, insulin dose and body weight were recorded at pre-specified intervals.
# (§5) Treatment-emergent AEs, hypoglycaemic episodes, laboratory parameters, physical examination, electrocardiogram (ECG), fundoscopy/fundusphotography, vital signs, PRO (Device-Specific questionnaires I and II) and insulin dose were summarized with descriptive statistics.
# (§6) Treatment-emergent events occurring after first exposure and no later than 7 days after last exposure. Safety analysis set. n number of patients with events, % proportion of patients with events, E number of events, R number of events per 100 patient-years.
# [2] = system: insulin-naïve subjects with type 2 diabetes; assay: BEGIN ONCE SIMPLE USE trial: fasting plasma glucose (hexokinase-UV); format: in vivo, human
# Description: (§1) This 26-week, multi-center, open-label, randomized, treat-to-target study compared the efficacy and safety of IDeg administered once daily in combination with metformin in insulin-naïve subjects with type 2 diabetes using two different patient-driven titration algorithms: a “Simple” algorithm (IDegSimple), with dose adjustments based on one pre-breakfast SMBG measurement (N=111) versus a “Step-wise” algorithm (IDegStep-wise), with adjustments based on three consecutive pre-breakfast SMBG values (N=111). IDeg was administered using the FlexTouch® insulin pen (Novo Nordisk A/S, Bagsværd, Denmark), with once-weekly dose titration in both groups.
# (§2) HbA1c was analyzed using a Bio-Rad high-performance liquid chromatography method at Visits 1 (screening), 2 (randomization), 14 (Week 12) and 28 (Week 26). Fasting plasma glucose (FPG) blood samples were assayed using a hexokinase-UV method at Visits 2, 14 and 28. At the first visit, subjects were provided with a glucose meter for SMBG measurement and instructions for use; blood glucose was measured with test strips calibrated to plasma glucose to obtain PG-equivalent values presented in this report. Subjects performed SMBG measurements before breakfast weekly after randomization and also performed an 8-point SMBG profile prior to Visits 2, 14 and 28.
# [3] = system: insulin-naïve subjects with type 2 diabetes; assay: BEGIN ONCE SIMPLE USE 26-week randomized treat-to-target trial: HbA1c / glycemic control; format: in vivo, human; conditions: for HbA1c change from baseline to Week 26 / HbA1c at Week 26: IDeg OD + metformin; for Patients achieving HbA1c<7% without confirmed hypoglycemia / Subjects achieving HbA1c<7.0% at end-of-trial: 26 weeks
# Description: as §1
# The study was conducted according to the Declaration of Helsinki (2008) and ICH Good Clinical Practice (1996) guidelines, with prior approval by appropriate ethics committees and patient consent obtained in writing prior to the start of any study-related activities. Eligible participants included insulin-naïve men or women ≥18 years of age, with type 2 diabetes, HbA1c 7.0-10.0% (inclusive), and body mass index (BMI) ≤45.0 kg/m^2, who were treated with ≥1000 mg/day metformin alone or in combination with one or two other oral antidiabetic medications (OADs) (including a sulfonylurea [SU] or glinide, dipeptidyl peptidase-4 [DPP-4] inhibitors, α-glucosidase inhibitors or thiazolidinediones [TZDs]), with unchanged dosing for ≥12 weeks prior to randomization. […] Subjects could be withdrawn from the trial due to withdrawal of consent, not fulfilling inclusion/exclusion criteria (randomized in error), non-compliance, or at the discretion of the investigator due to a safety concern. Subjects who were withdrawn after randomization were not to be replaced. This trial is registered at clinicaltrials.gov: NCT01326026.
# as §2
# [4] = system: people with Type 2 diabetes; conditions: in vivo; cited from earlier work
# [5] = system: insulin-naïve subjects with type 2 diabetes; conditions: in vivo
# Description: This was a multinational (conducted in the US, Spain, Finland, and Germany), Phase 3b, multi-center, two-armed, parallel group, open-label, randomized, treat-to-target study that compared the efficacy and safety of IDeg OD [IDeg 100 U/mL, FlexTouch® pen, Novo Nordisk A/S, Bagsværd, Denmark], adjusted using two different titration algorithms in combination with metformin. The trial consisted of a 26-week period; total study duration was approximately 28 weeks (including 1 week for screening and a 7-day follow-up period). […]
# Adverse events (AEs) and hypoglycemic episodes were documented throughout the study, with confirmed hypoglycemia defined as episodes of severe hypoglycemia (requiring assistance from another person) and episodes with PG value <3.1 mmol/L (56 mg/dL). […] Laboratory safety variables, insulin dose and body weight were recorded at pre-specified intervals.
# Change from baseline in HbA1c after 26 weeks was analyzed using an analysis of variance (ANOVA) method with treatment, region, sex and antidiabetic therapy at screening as fixed factors, and age and baseline HbA1c as covariates. […] Change in FPG and change in body weight were analyzed using an ANOVA model similar to that used for the primary analysis, but with the relevant baseline value as covariate for each measure. […]
# [6] = system: insulin-naïve subjects with type 2 diabetes; conditions: in vivo; remark: listed apart in the source
# Description: as §3, §4, §5, §6
# [7] = system: patients with type 2 diabetes; conditions: self-adjusted dose every 3 days from mean of previous 3 days' SMBG; 6 months; cited from earlier work
# [8] = system: people with Type 2 diabetes; conditions: INSIGHT; initial dose 10 units, increased by 1 unit each day until FPG ≤5.5 mmol/liter; cited from earlier work
substance,measurement,setting,value
LysB29(Nε-hexadecandioyl-γ-Glu) des(B30) human insulin [IDeg],Deaths,[1],One
same,Fasting plasma glucose at Week 26,[2]; IDegSimple arm,6.1 mmol/L
same,Fasting plasma glucose at Week 26,[2]; IDegStep-wise arm,6.8 mmol/L
same,Estimated treatment difference (IDegSimple−IDegStep-wise) in FPG,"[2]; Week 26, 95% CI [−1.30, 0.17]",-0.57 mmol/L
same,HbA1c change from baseline to Week 26,[3]; IDegSimple arm (Simple titration algorithm),−1.09%
same,Patients achieving HbA1c<7% without confirmed hypoglycemia,[3]; IDegSimple arm,40.6%
same,Subjects achieving HbA1c<7.0% at end-of-trial,[3]; IDegSimple arm,56.8%
same,HbA1c at Week 26,[3]; IDegSimple arm,7.0%
same,HbA1c change from baseline to Week 26,[3]; IDegStep-wise arm (Step-wise titration algorithm),−0.93%
same,Patients achieving HbA1c<7% without confirmed hypoglycemia,[3]; IDegStep-wise arm,34.6%
same,Subjects achieving HbA1c<7.0% at end-of-trial,[3]; IDegStep-wise arm,41.4%
same,HbA1c at Week 26,[3]; IDegStep-wise arm,7.2%
same,Estimated treatment difference (IDegSimple−IDegStep-wise) in HbA1c change,"[3]; Week 26, 95% CI [−0.39, 0.07]",−0.16 %-points
same,Non-inferiority of IDegSimple to IDegStep-wise in lowering HbA1c,"[3]; Week 26, non-inferiority limit 0.4%",non-inferior
same,Confirmed and nocturnal confirmed hypoglycemia rates with IDeg OD versus comparator insulin glargine,[4],lower than or similar to
same,Severe hypoglycemic episodes,[5],One
same,Headache: N number of patients with events,[6],8
same,SAE neoplasm event,[6],astrocytoma
same,SAEs: E number of events,[6],8
same,SAEs: R number of events per 100 patient-years,[6],15 events per 100 patient-years
insulin detemir,"HbA1c versus standard-of-care, physician-driven adjustments",[7],significantly lower HbA1c
insulin glargine,End HbA1c,[8],7.0%
